Assay results reported in PubChem BioAssay (NCI).
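All cell lines were grown in 96-well plates and treated with compound for 48 hours. The concentration for full growth arrest is given as TGI.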

Assays:
Assay in all cases: growth of human tumour cells (NCI), 48 h
[1] = system: PC-3 prostate
[2] = system: LOX IMVI melanoma
[3] = system: RXF 393 renal
[4] = system: K-562 leukemia
[5] = system: SN12C renal
[6] = system: IGROV1 ovarian
[7] = system: CCRF-CEM leukemia
[8] = system: MDA-MB-435
[9] = system: UACC-257 melanoma
[10] = system: OVCAR-5 ovarian
[11] = system: HT29 colon
[12] = system: MALME-3M melanoma
[13] = system: UO-31 renal
[14] = system: CAKI-1 renal
[15] = system: UACC-62 melanoma
[16] = system: HCC-2998 colon
[17] = system: OVCAR-3 ovarian
[18] = system: HCT-15 colon
[19] = system: HL-60(TB) leukemia
[20] = system: OVCAR-4 ovarian
[21] = system: DU-145 prostate
[22] = system: HOP-92 NSCLC
[23] = system: SK-MEL-5 melanoma
[24] = system: U251 CNS
[25] = system: EKVX NSCLC
[26] = system: SF-295 CNS
[27] = system: SK-OV-3 ovarian
[28] = system: NCI-H23 lung
[29] = system: SNB-19 CNS
[30] = system: HOP-62 NSCLC
[31] = system: ACHN renal
[32] = system: SK-MEL-28 melanoma
[33] = system: SF-539 CNS
[34] = system: TK-10 renal
[35] = system: SK-MEL-2 melanoma
[36] = system: NCI-H522 lung
[37] = system: NCI/ADR-RES ovarian
[38] = system: SF-268 CNS
[39] = system: T-47D breast
[40] = system: M14 melanoma
[41] = system: SR leukemia
[42] = system: COLO 205 colon
[43] = system: 786-0 renal
[44] = system: SNB-75 CNS
[45] = system: KM12 colon
[46] = system: SW-620 colon
[47] = system: NCI-H226 lung
[48] = system: A549 NSCLC
[49] = system: MDA-MB-231 breast
[50] = system: NCI-H460 lung
[51] = system: HCT-116 colon
[52] = system: OVCAR-8 ovarian
[53] = system: MDA-N
[54] = system: MOLT-4 leukemia
[55] = system: MCF7 breast
[56] = system: A498 renal
[57] = system: HS 578T breast

## Cc1ccc(-n2cc(-c3ccc(Cl)cc3)c3c(NN)ncnc32)cc1
[1]
  TGI: 56.1 µM
[2]
  TGI: 19.7 µM
[3]
  TGI: 7.31 µM
[4]
  TGI: 12 µM
[5]
  TGI: 13.9 µM
[6]
  TGI: 11.2 µM
[7]
  TGI: 2.52 µM
[8]
  TGI: 29.4 µM
[9]
  TGI: 16.1 µM
[10]
  TGI: 43.2 µM
[11]
  TGI: 19 µM
[12]
  TGI: 21.5 µM
[13]
  TGI: 12.3 µM
[14]
  TGI: 8.73 µM
[15]
  TGI: 13.2 µM
[16]
  TGI: 22.2 µM
[17]
  TGI: 12.8 µM
[18]
  TGI: 26.1 µM
[19]
  TGI: 4.99 µM
[20]
  TGI: 19.2 µM
[21]
  TGI: 12.8 µM
[22]
  TGI: 9.04 µM
[23]
  TGI: 7.23 µM
[24]
  TGI: 15.6 µM
[25]
  TGI: 9.99 µM
[26]
  TGI: 10.7 µM
[27]
  TGI: 44.2 µM
[28]
  TGI: 12.5 µM
[29]
  TGI: 40.9 µM
[30]
  TGI: 22.6 µM
[31]
  TGI: 14.3 µM
[32]
  TGI: 18.8 µM
[33]
  TGI: 11.3 µM
[34]
  TGI: > 100 µM
[35]
  TGI: 47.1 µM
[36]
  TGI: 15.8 µM
[37]
  TGI: 15.3 µM
[38]
  TGI: 17.8 µM
[39]
  TGI: 26.6 µM
[40]
  TGI: 3.75 µM
[41]
  TGI: 9.28 µM
[42]
  TGI: 11.2 µM
[43]
  TGI: 11.1 µM
[44]
  TGI: 7.6 µM
[45]
  TGI: 29 µM
[46]
  TGI: 26.2 µM
[47]
  TGI: 7.96 µM
[48]
  TGI: 15.3 µM
[49]
  TGI: > 100 µM
[50]
  TGI: 14.1 µM
[51]
  TGI: 9.1 µM
[52]
  TGI: 7.02 µM
[53]
  TGI: 63.2 µM
[54]
  TGI: 11.5 µM

## N=C(N)SCCC(=O)CCSC(=N)N
[1]
  TGI: > 100 µM
[2]
  TGI: > 100 µM
[3]
  TGI: > 100 µM
[4]
  TGI: > 100 µM
[5]
  TGI: > 100 µM
[55]
  TGI: > 100 µM
[7]
  TGI: > 100 µM
[8]
  TGI: > 100 µM
[9]
  TGI: > 100 µM
[56]
  TGI: > 100 µM
[11]
  TGI: > 100 µM
[13]
  TGI: > 100 µM
[57]
  TGI: > 100 µM
[16]
  TGI: > 100 µM
[17]
  TGI: > 100 µM
[18]
  TGI: > 100 µM
[19]
  TGI: > 100 µM
[20]
  TGI: > 100 µM
[21]
  TGI: > 100 µM
[22]
  TGI: > 100 µM
[23]
  TGI: > 100 µM
[24]
  TGI: > 100 µM
[26]
  TGI: > 100 µM
[27]
  TGI: > 100 µM
[28]
  TGI: > 100 µM
[29]
  TGI: > 100 µM
[31]
  TGI: > 100 µM
[32]
  TGI: > 100 µM
[34]
  TGI: > 100 µM
[36]
  TGI: > 100 µM
[37]
  TGI: > 100 µM
[38]
  TGI: > 100 µM
[39]
  TGI: > 100 µM
[40]
  TGI: > 100 µM
[41]
  TGI: > 100 µM
[42]
  TGI: > 100 µM
[44]
  TGI: > 100 µM
[45]
  TGI: > 100 µM
[46]
  TGI: > 100 µM
[47]
  TGI: > 100 µM
[48]
  TGI: > 100 µM
[49]
  TGI: > 100 µM
[50]
  TGI: > 100 µM
[51]
  TGI: > 100 µM
[52]
  TGI: > 100 µM
[53]
  TGI: > 100 µM
[54]
  TGI: > 100 µM
